Experimental data taken from PubChem BioAssay AID1963971 (Molecular Pharmacology Branch, DTP, NCI, 2024).

Tested on: 953936-095-R-J2-PDC spheroids with HUVEC/MSC, viability
Assay: Anticancer human tumor 953936-095-R-J2-PDC patient-derived cervical squamous cell carcinoma cell line growth inhibition [PI3K]
Settings: for IC50: curve of first compound; for viability, T/C: stronger effect = lower value
In short: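 Multi-cell spheroids combine tumor cells with HUVEC and human MSCs, treated with targeted agents alone or with inavolisib, alpelisib, duvelisib or copanlisib. Concentrations fall in half-log steps from at or near clinical Cmax, or from 10 microM where Cmax is unknown; viability read-out.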

[1] = second compound 0.0316 µM, first compound 0.0316 µM
[2] = second compound 0.0316 µM, first compound 0.1 µM
[3] = second compound 0.0316 µM, first compound 0.316 µM
[4] = second compound 0.0316 µM, first compound 1 µM
[5] = second compound 0.0316 µM, first compound 3.16 µM
[6] = second compound 0.0316 µM, first compound 10 µM
[7] = second compound 0.1 µM, first compound 0.0316 µM
[8] = second compound 0.1 µM, first compound 0.1 µM
[9] = second compound 0.1 µM, first compound 0.316 µM
[10] = second compound 0.1 µM, first compound 1 µM
[11] = second compound 0.1 µM, first compound 3.16 µM
[12] = second compound 0.1 µM, first compound 10 µM
[13] = second compound 0.316 µM, first compound 0.0316 µM
[14] = second compound 0.316 µM, first compound 0.1 µM
[15] = second compound 0.316 µM, first compound 0.316 µM
[16] = second compound 0.316 µM, first compound 1 µM
[17] = second compound 0.316 µM, first compound 3.16 µM
[18] = second compound 0.316 µM, first compound 10 µM
[19] = second compound 1 µM, first compound 0.0316 µM
[20] = second compound 1 µM, first compound 0.1 µM
[21] = second compound 1 µM, first compound 0.316 µM
[22] = second compound 1 µM, first compound 1 µM
[23] = second compound 1 µM, first compound 3.16 µM
[24] = second compound 1 µM, first compound 10 µM
[25] = second compound 3.16 µM, first compound 0.0316 µM
[26] = second compound 3.16 µM, first compound 0.1 µM
[27] = second compound 3.16 µM, first compound 0.316 µM
[28] = second compound 3.16 µM, first compound 1 µM
[29] = second compound 3.16 µM, first compound 3.16 µM
[30] = second compound 3.16 µM, first compound 10 µM
[31] = second compound 10 µM, first compound 0.0316 µM
[32] = second compound 10 µM, first compound 0.1 µM
[33] = second compound 10 µM, first compound 0.316 µM
[34] = second compound 10 µM, first compound 1 µM
[35] = second compound 10 µM, first compound 3.16 µM
[36] = second compound 10 µM, first compound 10 µM
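Also: spheroids exposed to compounds for seven days before read-out.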

Structure (SMILES): CC1(C)CCC(Nc2ncc(C(F)(F)F)c(-c3c[nH]c4c(P(C)(C)=O)c(C#N)ccc34)n2)CN1 (centres undefined) + Cc1nc(NC(=O)N2CCCC2C(N)=O)sc1-c1ccnc(C(C)(C)C(F)(F)F)c1
- IC50 (second compound 0.0316 µM): 31.6 nM
- IC50 (second compound 0.1 µM): 31.6 nM
- IC50 (second compound 0.316 µM): < 31.6 nM
- IC50 (second compound 1 µM): < 31.6 nM
- IC50 (second compound 3.16 µM): < 31.6 nM
- IC50 (second compound 10 µM): < 31.6 nM
- viability, T/C [1]: 45.1%
- viability, T/C [2]: 50%
- viability, T/C [3]: 46.5%
- viability, T/C [4]: 52.4%
- viability, T/C [5]: 55.8%
- viability, T/C [6]: 8.23%
- viability, T/C [7]: 45.9%
- viability, T/C [8]: 39.1%
- viability, T/C [9]: 42.2%
- viability, T/C [10]: 42.6%
- viability, T/C [11]: 54.3%
- viability, T/C [12]: 5.8%
- viability, T/C [13]: 38.9%
- viability, T/C [14]: 37.8%
- viability, T/C [15]: 40.8%
- viability, T/C [16]: 38.9%
- viability, T/C [17]: 38.3%
- viability, T/C [18]: 3.36%
- viability, T/C [19]: 30.8%
- viability, T/C [20]: 27.1%
- viability, T/C [21]: 26%
- viability, T/C [22]: 28.1%
- viability, T/C [23]: 33.4%
- viability, T/C [24]: 1.62%
- viability, T/C [25]: 18.2%
- viability, T/C [26]: 19.4%
- viability, T/C [27]: 17.2%
- viability, T/C [28]: 20.1%
- viability, T/C [29]: 13.8%
- viability, T/C [30]: 0.46%
- viability, T/C [31]: 9.15%
- viability, T/C [32]: 9.91%
- viability, T/C [33]: 10.7%
- viability, T/C [34]: 10.3%
- viability, T/C [35]: 5.73%
- viability, T/C [36]: 0.31%

Structure (SMILES): CC(Cn1ccc(-c2ccc(C#N)c(Cl)c2)n1)NC(=O)c1cc(C(C)O)[nH]n1 (centres undefined) + CC(Nc1ncnc2nc[nH]c12)c1cc2cccc(Cl)c2c(=O)n1-c1ccccc1
- IC50 (second compound 0.0316 µM): > 10000 nM
- IC50 (second compound 0.1 µM): > 10000 nM
- IC50 (second compound 0.316 µM): > 10000 nM
- IC50 (second compound 1 µM): > 10000 nM
- IC50 (second compound 3.16 µM): > 10000 nM
- IC50 (second compound 10 µM): > 10000 nM
- viability, T/C [1]: 97.5%
- viability, T/C [2]: 100%
- viability, T/C [3]: 101%
- viability, T/C [4]: 91.1%
- viability, T/C [5]: 108%
- viability, T/C [6]: 96%
- viability, T/C [7]: 98.4%
- viability, T/C [8]: 106%
- viability, T/C [9]: 93.6%
- viability, T/C [10]: 109%
- viability, T/C [11]: 101%
- viability, T/C [12]: 93.5%
- viability, T/C [13]: 107%
- viability, T/C [14]: 85.7%
- viability, T/C [15]: 90.8%
- viability, T/C [16]: 88.6%
- viability, T/C [17]: 92.8%
- viability, T/C [18]: 93.4%
- viability, T/C [19]: 98.2%
- viability, T/C [20]: 91.7%
- viability, T/C [21]: 91.7%
- viability, T/C [22]: 94.4%
- viability, T/C [23]: 97.7%
- viability, T/C [24]: 90.1%
- viability, T/C [25]: 83.7%
- viability, T/C [26]: 73.6%
- viability, T/C [27]: 72.2%
- viability, T/C [28]: 75.9%
- viability, T/C [29]: 79.9%
- viability, T/C [30]: 70.7%
- viability, T/C [31]: 55.7%
- viability, T/C [32]: 56%
- viability, T/C [33]: 62.8%
- viability, T/C [34]: 60.5%
- viability, T/C [35]: 59.3%
- viability, T/C [36]: 58.8%
